# Assay results reported in US10092493B2, “Composition of skin external application for anti-aging” (AMOREPACIFIC CORPORATION, priority 2005, dated 2018).
# What was measured:
# type IV collagen = experiment: Biosynthesis of type IV collagen in keratinocytes (Dot Blot); type: cell-based; settings: human keratinocytes, 10 ppm, 24 hours; control = 100
# Method: The media were exchanged with new medium containing 10 ppm of each test substance. After 24 hours of cultivation, each supernatant was harvested and subjected to the Dot Blot method to measure the amount of produced type IV collagen.
# MMP-2 = experiment: Inhibition of MMP-2 biosynthesis after UV irradiation (gelatin zymography); type: cell-based; settings: human keratinocytes, UV-B 30 mJ/cm^2, 10 ppm test substance, 2 days; UV control = 100
# Method: (§1) After 24 hours, the plate was irradiated by UV-B at 30 mJ/cm^2. The media were exchanged with new medium containing 10 ppm of each test substance. After 2 days of cultivation, each supernatant was harvested and subjected to the zymography using gelatine gel to obtain produced MMP-2 and MMP-9, quantities of which were then measured by a densitometer.
# [1] = biological target: T1, PPAR-α (Peroxisome Proliferator Activated Receptor-alpha) (Homo sapiens, UniProt Q07869); experiment: Activation of PPAR-α, luciferase reporter in CV-1 cells; type: cell-based; settings: 24 hours, negative control and non-treated group = 1.0
# T1 construct: expressed in transfected cells; host or cells: CV-1 monkey kidney epithelial cells (ATCC CCL 70)
# T1 sequence (Q07869 1-468): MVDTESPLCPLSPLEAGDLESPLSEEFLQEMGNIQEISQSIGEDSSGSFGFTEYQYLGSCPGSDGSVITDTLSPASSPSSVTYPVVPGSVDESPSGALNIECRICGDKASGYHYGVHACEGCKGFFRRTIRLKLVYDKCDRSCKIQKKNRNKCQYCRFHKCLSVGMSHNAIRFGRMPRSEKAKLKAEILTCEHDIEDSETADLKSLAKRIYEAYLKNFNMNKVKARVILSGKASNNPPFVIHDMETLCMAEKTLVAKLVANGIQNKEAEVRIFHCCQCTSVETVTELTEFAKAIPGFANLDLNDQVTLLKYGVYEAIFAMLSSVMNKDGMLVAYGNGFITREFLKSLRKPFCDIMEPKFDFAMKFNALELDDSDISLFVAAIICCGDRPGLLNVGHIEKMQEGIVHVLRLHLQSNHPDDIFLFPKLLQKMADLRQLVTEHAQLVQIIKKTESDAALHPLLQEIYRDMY
# Method: Monkey kidney epithelial cell line CV-1 (ATCC CCL 70) was subcultured in a DMEM medium containing 10% fetal bovine serum treated with charcol/dextran, which was a phenol red-free medium to remove the effect by estrogen of phenol red.
# CV-1 cells were distributed in a 24-well plate type incubator at a concentration of 5×10^4. After 24 hours cultivation, the 3 different plasmids were transient transfected. After 24 hours cultivation, the plate was washed with 1×PBS (Phosphate Buffered Saline) and treated with ligand candidates at various concentrations. After 24 hours cultivation, the plate was washed with 1×PBS and the cells were lyzed with 1×PLB (Passive Lysis Buffer) and measured for luciferase activity using Dual-Luciferase® Reporter Assay System kit.
# [2] = system: Tumor Necrosis Factor alpha (TNF-α); experiment: Inhibition of TNF-α biosynthesis after UV irradiation (ELISA); type: cell-based; settings: human keratinocytes, UV-B 30 mJ/cm^2, 10 μM (10 ppm of extract), 6 to 24 hours; UV control = 100
# Method: Human keratinocytes were cultured in a 12-well plate type incubator at a concentration of 10^4. The plate was irradiated by UV-B at 30 mJ/cm^2. The media were exchanged with new medium containing 10 μM of each test substance (10 ppm of extract). After 6 to 24 hours of cultivation, the cells were harvested and subjected to ELISA (Pharmingen 555212) to determine the amount of produced tumor necrosis factor α (TNF-α). As the positive control, Wy-14,643 was used.
# [3] = system: Type I Collagenase (MMP-1); experiment: Inhibition of type I collagenase (MMP-1) biosynthesis after UV-A irradiation, test substances (ELISA); type: cell-based; settings: new born human fibroblasts, UV-A 15 J/cm^2, 10 μM or 10 ppm, UV negative control = 100; for Type I collagenase biosynthesis (%), UV-A + TNF-α treated group: plus TNF-α 10 ng/ml
# Method: To describe the experiment method in detail, human fibroblasts isolated from the skin of a new born baby were cultured in a 48-well plate type incubator at a concentration of 10^4. After 24 hours, the plate was irradiated by UV-A at 15 J/cm^2. […] At the second day of cultivation, the supernatants were harvested and subjected to ELISA (AP biotech RPN2610) to determine the amount of produced type I collagenase. As the positive control, Wy-14,643 and retinoic acid (RA) were used.
# MMP-9 = experiment: Inhibition of MMP-9 biosynthesis after UV irradiation (gelatin zymography); type: cell-based; settings: human keratinocytes, UV-B 30 mJ/cm^2, 10 ppm test substance, 2 days; UV control = 100
# Method: as §1
# laminin 10/11 = experiment: Biosynthesis of laminin 10/11 in keratinocytes (Western Blot); type: cell-based; settings: human keratinocytes, 10 ppm, 24 hours; control = 100
# Method: Human keratinocytes were cultured in a 24-well plate type incubator at a concentration of 5×10^4. The media were exchanged with new medium containing 10 ppm of each test substance. After 24 hours of cultivation, each supernatant was harvested and subjected to the Western Blot method to measure the amount of produced laminin 10/11.
# type VII collagen = experiment: Biosynthesis of type VII collagen in fibroblasts (Dot Blot); type: cell-based; settings: human fibroblasts, 10 ppm, 24 hours; control = 100
# Method: The media were exchanged with new medium containing 10 ppm of each test substance. After 24 hours of cultivation, each supernatant was harvested and subjected to the Dot Blot method to measure the amount of produced type VII collagen.
# [4] = system: Type I Collagenase (MMP-1); experiment: Type I collagenase (MMP-1) biosynthesis with UV-A, TNF-α and antibody against TNF-α (ELISA); type: cell-based, Human
# Method: Human fibroblasts isolated from the skin of new born baby were cultured in a 48-well plate type incubator at a concentration of 10^4. after 24 hours, the plate was irradiated by UV-A at 15 J/cm^2 and antibody against tumor necrosis factor alpha was added thereto in a concentration of 1 ug/ml. At the second day of cultivation, the supernatants were harvested and subjected to ELISA (AP biotech RPN2610) to determine the amount of produced type I collagenase. The result is shown in Table 15 as comparative values, referred to 100 of control which was not treated.
# pro-collagen = experiment: Biosynthesis of collagen (pro-collagen ELISA) in fibroblasts; type: cell-based, Human; settings: 48 hours, un-treated control = 100
# Method: Human fibroblasts were cultured in a 48-well plate type incubator at a concentration of 10^4. The media were exchanged with new medium (theanine: 1, 10, 100 um) containing each test substance of Table 7 at a concentration of 0.001 μM, 0.01 μM, 0.1 μM, 0.5 μM and 2 μM. After 48 hours of cultivation, each supernatant was harvested and subjected to ELISA (Takara MK101) to measure the amount of produced pro-collagen.
# Also, in order to examine the synergic effect of theanine on collagen biosynthesis, theanine 10 μM was added to catechin at different 4 concentrations and the result is shown in Table 8.
Compound,"type I collagenase, UV-A irradiated group, column headed TNF-α treated group ([4]; UV-A 15 J/cm^2, antibody against TNF-α 1 ug/ml, untreated control = 100 (UV-A without antibody 210))","type I collagenase, TNF-α treated group, No-Antibody treated group ([4]; new born human fibroblasts, untreated control = 100)",Type IV collagen biosynthesis (%) (type IV collagen),MMP-2 (%) (MMP-2),PPAR-α activity ([1]; 10 μM),PPAR-α activity ([1]; 100 μM),TNF-α biosynthesis (%) [2] [%],"Type I collagenase biosynthesis (%), UV-A + TNF-α treated group [3] [%]","Type I collagenase biosynthesis (%), UV-A irradiated group [3] [%]",MMP-9 (%) (MMP-9),laminin 10/11 biosynthesis (%) (laminin 10/11),type VII collagen biosynthesis (%) (type VII collagen),Collagen biosynthesis (pro-collagen; 0.001 μM),Collagen biosynthesis (pro-collagen; 0.01 μM),Collagen biosynthesis (pro-collagen; 0.1 μM),Collagen biosynthesis (pro-collagen; 0.5 μM),Collagen biosynthesis (pro-collagen; 2 μM)
"O=c1c(O)c(-c2cc(O)c(O)c(O)c2)oc2cc(O)cc(O)c12 [Myricetin, myricetin]",–,–,139,51,1.7,1.6,36,97,52,55,132,125,–,–,–,–,–
TNF-α,134,250,–,–,–,–,–,–,–,–,–,–,–,–,–,–,–
"O=C(O[C@@H]1Cc2c(O)cc(O)cc2O[C@@H]1c1cc(O)c(O)c(O)c1)c1cc(O)c(O)c(O)c1 [EGCG, epigallocatechin gallate]",–,–,138,52,1.0,1.5,35,88,42,56,137,127,101.4,154.6,133.8,155.8,78.4
"O=C(O[C@@H]1Cc2c(O)cc(O)cc2O[C@H]1c1cc(O)c(O)c(O)c1)c1cc(O)c(O)c(O)c1 [GCG, gallocatechin gallate]",–,–,135,53,–,2.3,27,86,43,56,131,121,98.9,138.3,147.0,157.1,75.2
"O=C(O[C@@H]1Cc2c(O)cc(O)cc2O[C@H]1c1ccc(O)c(O)c1)c1cc(O)c(O)c(O)c1 [CG, catechin gallate]",–,–,134,53,1.2,1.6,37,89,53,55,129,124,104.3,118.5,124.9,118.9,80.3
